The text below walks through data of patent US4401666A (priority 1982, dated 1983).

One series deals with Escherichia coli. The protocol:
(§1) Bacterial isolates for these studies were obtained from the New York State Mastitis Control Program, a division of veterinary clinical services of the New York State College of Veterinary Medicine, Cornell University. Samples were from cows with clinical mastitis or from milk cows that were cultured for a routine herd survey. Mastitis pathogens were identified by the use of standard bacteriologic technique^(1).
(§2) Concentrations inhibiting growth by 50% were determined using broth dilution test procedures^(2). Briefly 0.1 ml of cultures containing approximately 9×10^6 organisms/ml were inoculated into 10 mls of Tryptose-soy broth^(3) containing either 0, 1, 10, 100, or 1000 ppm of zinc pyridine-2-thione-N-oxide. These tubes were incubated at 37° C. for 18 hours and optical densities were read at 550 nanometers. Blanks for each test level consisted of a Tryptose-soy broth tube with the same concentration of test material. Concentrations of test material inhibiting growth by 50% were computed by probit analysis^(4).

A further series has as its system Klebsiella pneumoniae. The protocol:
as §1, §2

In another series the test system is Pseudomonas aeruginosa. As to conditions: 37° C., 18 h, 2 isolates. On the procedure: as §1, §2
In a further series the test system is Staphylococcus aureus. As to conditions: 37° C., 18 h, 5 isolates. The protocol: as §1, §2
Series [1] has as its system microorganisms which cause bovine mastitis. The note with it: broth. On the procedure: as §1, §2
The subject of the next series is Yeast Group. Put plainly: Broth dilution growth inhibition (MIC), isolates from mastitic cows. The series is classed as cell-based. The note with it: 37° C., 18 h, 5 isolates. (In general: Dilution methods test growth across graded concentrations, often in twofold steps.)
In the next series the test system is E. coli. In words: MIC in sterile, homogenized, skim milk. Format: cell-based, Escherichia coli. The note with it: 37° C., 4 h. The protocol: (§3) Cultures of E. coli and S. aureus were isolated from mammary glands of cows with mastitis. Cultures were streaked on blood agar plates and incubated for 24 hours at 37° C. Colonies from these plates were inoculated into nutrient broth tubes and incubated at 37° C. overnight. One-tenth milliliter aliquots of these cultures were inoculated into 10 milliliter tubes of sterile, homogenized, skim milk containing various concentrations of zinc pyridine-2-thione-N-oxide. The concentrations of this active compound ranged from 0.01 ppm to 100 ppm and were made by serially diluting a 1% by weight aqueous suspension of zinc pyridine-2-thione-N-oxide in 10 milliliter portions of sterile skim milk.
(§4) The milk tubes containing bacteria and zinc pyridine-2-thione-N-oxide were incubated in a shaking water bath at 37° C. for 4 hours; at the end of the incubation period, 0.1 ml of the milk incubate was added to 2 ml of soft agar (0.75% by weight agar and the rest being water) and plated on blood agar plates. These plates were incubated at 37° C. for 18 hours and the microorganisms present on each plate were counted with an NBS Automatic Colony Counter.

The test system of a further series is S. aureus. Put plainly: MIC in sterile, homogenized, skim milk. The note with it: 37° C., 4 h. The series is classed as cell-based, Staphylococcus aureus. The protocol: as §3, §4
For series [2], the system named is udder of normal, lactating cows. The note with it: bovine, in vivo.
For series [3], the system named is udder of healthy, lactating cow. As to conditions: bovine, in vivo.
The conditions of series [4]: bovine, in vivo.
The test system of another series is rats. As to conditions: cited from earlier work.
[5] abbreviates: Tryptose-soy broth, 37° C., 18 h, 5 isolates.
Where [6] appears, read: Tryptose-soy broth, 37° C., 18 h, 3 isolates.

For orientation: LD50 means the dose at which mortality reaches 50%. For `[O-]n1ccccc1=S.[O-]n1ccccc1=S.[Zn+2]` [zinc pyridine-2-thione-N-oxide, bis[1-hydroxy-2(1H)pyridinethionato]zinc], in the series with Escherichia coli (setting [5]), the “50% by Weight Growth Inhibited (concentration inhibiting growth by 50%)” value is reported as 2.5 ± 0.5 ppm and the “100% by Weight Growth Inhibited (MIC)” value is recorded as 13-20 ppm. In the series on Escherichia coli (broth), the “effectiveness against E. coli” value is “especially effective”. Moreover, in the series on Klebsiella pneumoniae (setting [6]), the “50% by Weight Growth Inhibited (concentration inhibiting growth by 50%)” value worked out at 2.1 ± 0.3 ppm and the “100% by Weight Growth Inhibited (MIC)” value is 10-20 ppm. Besides, the “effectiveness against K. pneumoniae” value in the series on Klebsiella pneumoniae (broth) is on record as “especially effective”. Also, in the series with Pseudomonas aeruginosa (Tryptose-soy broth), the “50% by Weight Growth Inhibited (concentration inhibiting growth by 50%)” value is listed as 9.6 ± 6.4 ppm and the “100% by Weight Growth Inhibited (MIC)” value is 80-100 ppm. In addition, in the series with Staphylococcus aureus (Tryptose-soy broth), the “50% by Weight Growth Inhibited (concentration inhibiting growth by 50%)” value is given as less than 1.0 ppm and the “100% by Weight Growth Inhibited (MIC)” value is given as 5-10 ppm. In addition, the “effectiveness against microorganisms which cause bovine mastitis” value in series [1] was “effective”. In addition, in the series on Yeast Group (Tryptose-soy broth), the “50% by Weight Growth Inhibited (concentration inhibiting growth by 50%)” value is on record as less than 1.0 ppm and the “100% by Weight Growth Inhibited (MIC)” value is given as 3-6 ppm. In the series on E. coli, the “MIC at 95% Inhibition of Growth” value is listed as 10 ppm and the “MIC at 100% Inhibition of Growth” value came to 100 ppm. In the series on S. aureus, the “MIC at 95% Inhibition of Growth” value stood at 10 ppm and the “MIC at 100% Inhibition of Growth” value amounted to 100 ppm. In [2], the “CMT scores, overall” value is reported as “increased CTM scores”; the “CMT values at 504 hours after the first dose” value was “Normal values”; the “adverse effects on cow's udder” value was “some adverse effects on cow's udder”; the “change in CMT scores” value was “increase”. In series [2], the “flakes and clots in milk” value was “produced flakes and clots in milk”; the milk output entry is “depressed milk output”; the milk production result is reported as “reduced more dramatically than the 1% infusion”; the “overall effects compared with 1% infusion” value is given as “in general similar to 1% infusion except with increased severity”. In series [2], the systemic effects entry was “no systemic effects were noted” and the “warmth of the udder” value is recorded as “felt warm”. Besides, in series [3], the “change in CMT scores” value is “very slight rise”, the “effect on CMT scores” value is on record as “no effect”, the “effect on other physical observations” value was “no effect” and the “firmness of the udder to palpation” value was “increased firmness of the udder to palpation”. Besides, in series [3], the “irritation caused to the udder” value is reported as “low irritation”. In [4], the “disappearance from the milk” value is “relative quick disappearance from the milk”; the “residual amounts in milk expected at lower infused amounts” value is recorded as “may be expected to be lower”; the “residual content in milk, summary” value is recorded as “very low levels”. In addition, the median lethal dose (LD50) in the series with rats was 200 mg/kg.

For `[Na+].[O-][n+]1ccccc1[S-]` [sodium pyridine-2-thione-N-oxide, 2-pyridinethiol-1-oxide, Na salt], the “50% by Weight Growth Inhibited” value in the series with Escherichia coli (Table 1A, broth, 37° C., 18 h, 5 isolates) is reported as 3.4 ± 0.8; in the series on Klebsiella pneumoniae (Table 1A, broth, 37° C., 18 h, 3 isolates), 5.2 ± 0.8; in the series on Pseudomonas aeruginosa (Table 1A, broth), 38.0 ± 5.2; with Staphylococcus aureus (Table 1A, broth), less than 1.0; with Yeast Group (Table 1A, broth), less than 1.0. Further, in series [1], the “effectiveness against microorganisms which cause bovine mastitis” value is listed as “effective”.
